Format in all cases: biochemical
Assay [1] addresses T1, TYK2 (aa 871-1187, catalytic domain, GST-tag) (Homo sapiens, UniProt P29597).
T1 construct: JAK1 (aa 850-1154) and TYK2 (aa 871-1187) are expressed with an N-terminally fused GST-tag; GST (N); purchased Carna Biosciences, Inc; host or cells: baculovirus expression system
T1 sequence (P29597 871-1187): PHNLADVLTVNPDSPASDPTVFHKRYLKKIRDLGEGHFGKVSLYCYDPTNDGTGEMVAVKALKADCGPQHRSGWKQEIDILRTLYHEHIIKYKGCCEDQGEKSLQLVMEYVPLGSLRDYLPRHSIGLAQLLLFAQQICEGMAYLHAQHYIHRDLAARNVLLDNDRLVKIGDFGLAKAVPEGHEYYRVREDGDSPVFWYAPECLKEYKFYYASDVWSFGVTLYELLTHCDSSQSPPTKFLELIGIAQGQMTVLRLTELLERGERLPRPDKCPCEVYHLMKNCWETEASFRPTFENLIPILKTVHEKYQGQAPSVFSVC
Description: JAK kinase assay (HTRF, phosphorylation of TK substrate-biotin), TYK2. The conditions noted are these: ATP at Km (13 μM); read-out: TYK2 kinase inhibitory activity (EC50 indicator). As to the method:
(§1) Human baculovirus-expressed JAK1, 2, 3 and TYK2 were purchased from Carna Biosciences, Inc. All four purified enzymes contain only the catalytic domain. JAK1 (aa 850-1154) and TYK2 (aa 871-1187) are expressed with an N-terminally fused GST-tag, and JAK2 and JAK3 with an N-terminally fused His-tag.
(§2) Inhibition of phosphorylation of a synthetic peptide was measured in an HTRF-based assay using the TK substrate-Biotin from the Cisbio HTRFKinEASE TK kit. First, 2 μl of TK solution (TK substrate-biotin in kinase buffer [1× enzymatic buffer from HTRFKinEASE TK kit, 1 mM DTT]) is added to a plate containing 1 μl prediluted compound (final assay concentration DMSO: 0.75%). Then, 5 μl kinase-ATP mix (prepared in kinase buffer) is added to the wells and the plates are incubated at RT for 20-30 min. For all four kinases a concentration of ATP that corresponded to the Km for ATP was used. The final concentrations of buffers, substrate, kinase and ATP were: JAK1: 50 mM Hepes buffer pH 7.0, 0.01% BSA, 10 mM MgCl2, 1 mM DTT, 7 μM ATP, 50 nM SEB, 1 μM TK Substrate-Biotin and 5 ng JAK1; JAK2: 50 mM Hepes buffer pH 7.0, 0.01% BSA, 5 mM MgCl2, 1 mM DTT, 4 μM ATP, 1 μM TK Substrate-Biotin and 0.1 ng JAK2; JAK3: 50 mM Hepes buffer pH 7.0, 0.01% BSA, 5 mM MgCl2, 1 mM DTT, 2 μM ATP, 1 μM TK Substrate-Biotin and 0.3 ng JAK3; TYK2: 50 mM Hepes buffer pH 7.0, 0.01% BSA, 5 mM MgCl2, 1 mM DTT, 13 μM ATP, 50 nM SEB, 1 μM TK Substrate-Biotin and 0.8 ng TYK2. Thereafter, the kinase reaction is stopped by adding 4 μl detection mix (final concentrations: 50 mM Hepes buffer pH 7.0, 0.01% BSA, 0.8 M KF, 20 mM EDTA, 42 nM Streptavidin-XL665 and 1:400 STK Ab Cryptate) and the plates are incubated overnight in the dark. The HTRF signal is read using an Envision plate reader.
(§3) In Table 1 selected JAK kinase inhibitory activities are listed with the following indicators: I: EC50<100 nM, II: 100 nM≦EC50≦500 nM and III: EC50>500 nM
In general terms: In TR-FRET formats the signal depends on donor and acceptor labels being close together.

Assay [2] addresses T2, JAK3 (catalytic domain, His-tag) (Homo sapiens, UniProt P52333).
T2 construct: All four purified enzymes contain only the catalytic domain; His (N); purchased Carna Biosciences, Inc; host or cells: baculovirus expression system
Description: JAK kinase assay (HTRF, phosphorylation of TK substrate-biotin), JAK3. The following applies: ATP at Km (2 μM); read-out: JAK3 kinase inhibitory activity (EC50 indicator). As to the method:
as §1, §2, §3

The target of assay [3] is T3, JAK2 (catalytic domain, His-tag) (Homo sapiens, UniProt O60674).
T3 construct: All four purified enzymes contain only the catalytic domain; His (N); purchased Carna Biosciences, Inc; host or cells: baculovirus expression system
T3 sequence (O60674 849-1124 limits assumed): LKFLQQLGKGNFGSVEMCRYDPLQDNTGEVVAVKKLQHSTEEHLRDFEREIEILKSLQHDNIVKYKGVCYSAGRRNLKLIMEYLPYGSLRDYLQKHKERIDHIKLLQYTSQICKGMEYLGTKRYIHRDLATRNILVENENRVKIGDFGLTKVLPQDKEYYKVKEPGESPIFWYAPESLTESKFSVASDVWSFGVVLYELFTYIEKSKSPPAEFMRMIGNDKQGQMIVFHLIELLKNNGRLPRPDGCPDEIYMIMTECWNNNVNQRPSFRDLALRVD
Put plainly: JAK kinase assay (HTRF, phosphorylation of TK substrate-biotin), JAK2. The following applies: ATP at Km (4 μM); read-out: JAK2 kinase inhibitory activity (EC50 indicator). As to the method:
as §1, §2, §3

Assay [4] addresses T4, JAK1 (aa 850-1154, catalytic domain, GST-tag) (Homo sapiens, UniProt P23458).
T4 construct: JAK1 (aa 850-1154) and TYK2 (aa 871-1187) are expressed with an N-terminally fused GST-tag; GST (N); purchased Carna Biosciences, Inc; host or cells: baculovirus expression system
Put plainly: JAK kinase assay (HTRF, phosphorylation of TK substrate-biotin), JAK1. The conditions noted are these: ATP at Km (7 μM); read-out: JAK1 kinase inhibitory activity (EC50 indicator). As to the method:
as §1, §2, §3

Among the data in patent US9346809B2 (LEO PHARMA A/S, priority 2009, dated 2016) are EC50 values, retold here.

T4 sequence (P23458 850-1154): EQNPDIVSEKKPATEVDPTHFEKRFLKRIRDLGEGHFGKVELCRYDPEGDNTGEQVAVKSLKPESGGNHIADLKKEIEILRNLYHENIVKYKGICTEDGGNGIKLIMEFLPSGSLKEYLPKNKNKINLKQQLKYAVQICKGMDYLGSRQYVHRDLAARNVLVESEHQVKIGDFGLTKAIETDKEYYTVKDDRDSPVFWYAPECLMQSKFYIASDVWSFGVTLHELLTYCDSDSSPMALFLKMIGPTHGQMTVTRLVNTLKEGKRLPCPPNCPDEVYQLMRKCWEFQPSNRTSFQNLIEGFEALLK
T2 sequence (P52333 822-1111 limits assumed): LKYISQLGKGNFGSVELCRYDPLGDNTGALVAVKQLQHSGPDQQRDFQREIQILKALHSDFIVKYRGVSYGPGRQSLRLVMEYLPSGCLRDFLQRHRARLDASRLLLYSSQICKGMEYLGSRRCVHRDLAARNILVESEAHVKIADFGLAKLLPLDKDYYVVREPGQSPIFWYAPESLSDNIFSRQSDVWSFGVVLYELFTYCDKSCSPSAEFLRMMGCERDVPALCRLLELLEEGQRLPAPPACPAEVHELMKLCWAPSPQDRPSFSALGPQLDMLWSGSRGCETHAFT

Usually EC50 stands for the concentration at which the effect is half-maximal. For the compound `NS(=O)(=O)CCC(=O)N1CCN(c2ncnc3[nH]ccc23)CC12CC2` [Example 17, 3-Oxo-3-[7-(7H-pyrrolo[2,3-d]pyrimidin-4-yl)-4,7-diazaspiro[2.5]oct-4-yl]propane-1-sulfonic acid amide], the EC50 is 100 to 500 nM in assay [1], less than 100 nM in assay [2], less than 100 nM in assay [3] and less than 100 nM in assay [4].
Take `N#CCc1ccc(C(=O)N2CCN(c3ncnc4[nH]ccc34)CC23CC3)cc1` [Example 18, {4-[7-(7H-Pyrrolo[2,3-d]pyrimidin-4-yl)-4,7-diazaspiro[2.5]octane-4-carbonyl]-phenyl}acetonitrile]: the EC50 is 100 to 500 nM in assay [1], 100 to 500 nM in assay [2], less than 100 nM in assay [3] and less than 100 nM in assay [4].
Regarding `O=C(c1cnccn1)N1CCN(c2ncnc3[nH]ccc23)CC12CC2` [Example 19, Pyrazin-2-yl-[7-(7H-pyrrolo[2,3-d]pyrimidin-4-yl)-4,7-diazaspiro[2.5]oct-4-yl]methanone], the EC50 in assay [1] was 100 to 500 nM; in assay [2], less than 100 nM; in assay [3], less than 100 nM; in assay [4], less than 100 nM.
On to `O=C(c1cccc(C(F)(F)F)c1)N1CCN(c2ncnc3[nH]ccc23)CC12CC2` [Example 20, [7-(7H-Pyrrolo[2,3-d]pyrimidin-4-yl)-4,7-diazaspiro[2.5]oct-4-yl]-(3-trifluoromethylphenyl)methanone], for which the EC50 was 100 to 500 nM in assay [1], 100 to 500 nM in assay [2], less than 100 nM in assay [3] and less than 100 nM in assay [4].
For `O=C(Cc1ccncc1)N1CCN(c2ncnc3[nH]ccc23)CC12CC2` [Example 21, 2-Pyridin-4-yl-1-[7-(7H-pyrrolo[2,3-d]pyrimidin-4-yl)-4,7-diazaspiro[2.5]oct-4-yl]ethanone], the EC50 in assay [1] was greater than 500 nM; in assay [2], 100 to 500 nM; in assay [3], less than 100 nM; in assay [4] it was less than 100 nM.
`O=C(C1CCCO1)N1CCN(c2ncnc3[nH]ccc23)CC12CC2` (stereo not drawn) [Example 22, [7-(7H-Pyrrolo[2,3-d]pyrimidin-4-yl)-4,7-diazaspiro[2.5]oct-4-yl]-(tetrahydrofuran-2-yl)methanone]: the EC50 in assay [1] was greater than 500 nM; in assay [2], 100 to 500 nM; in assay [3], less than 100 nM; in assay [4] it was 100 to 500 nM.
`O=C1CCC(C(=O)N2CCN(c3ncnc4[nH]ccc34)CC23CC3)CC1` [Example 23, 4-[7-(7H-Pyrrolo[2,3-d]pyrimidin-4-yl)-4,7-diazaspiro[2.5]octane-4-carbonyl]cyclohexanone]: the EC50 was 100 to 500 nM in assay [1], less than 100 nM in assay [2], less than 100 nM in assay [3] and less than 100 nM in assay [4].
As for `O=C(CC(F)(F)F)N1CCN(c2ncnc3[nH]ccc23)CC12CC2` [Example 24, 3,3,3-Trifluoro-1-[7-(7H-pyrrolo[2,3-d]pyrimidin-4-yl)-4,7-diazaspiro[2.5]oct-4-yl]propan-1-one], the EC50 is greater than 500 nM in assay [1], less than 100 nM in assay [2], less than 100 nM in assay [3] and less than 100 nM in assay [4].
For `N#Cc1cccc(CC(=O)N2CCN(c3ncnc4[nH]ccc34)CC23CC3)c1` [Example 25, 3-{2-Oxo-2-[7-(7H-pyrrolo[2,3-d]pyrimidin-4-yl)-4,7-diazaspiro[2.5]oct-4-yl]-ethyl}benzonitrile], the EC50 was greater than 500 nM in assay [1], 100 to 500 nM in assay [2], less than 100 nM in assay [3] and 100 to 500 nM in assay [4].
`O=C(c1cc2ccccc2s1)N1CCN(c2ncnc3[nH]ccc23)CC12CC2` [Example 26, Benzo[b]thiophen-2-yl-[7-(7H-pyrrolo[2,3-d]pyrimidin-4-yl)-4,7-diazaspiro[2.5]oct-4-yl]methanone]: the EC50 in assay [1] was 100 to 500 nM; in assay [2], 100 to 500 nM; in assay [3], less than 100 nM; in assay [4] it was less than 100 nM.
Regarding `O=C(c1ccccc1)N1CCN(c2ncnc3[nH]ccc23)CC12CC2` [Example 27, Phenyl-[7-(7H-pyrrolo[2,3-d]pyrimidin-4-yl)-4,7-diazaspiro[2.5]oct-4-yl]methanone], the EC50 in assay [1] is 100 to 500 nM; in assay [2], 100 to 500 nM; in assay [3], less than 100 nM; in assay [4], less than 100 nM.
Regarding `O=C(CCC(F)(F)F)N1CCN(c2ncnc3[nH]ccc23)CC12CC2` [Example 28, 4,4,4-Trifluoro-1-[7-(7H-pyrrolo[2,3-d]pyrimidin-4-yl)-4,7-diazaspiro[2.5]oct-4-yl]butan-1-one], the EC50 in assay [1] was 100 to 500 nM; in assay [2], less than 100 nM; in assay [3], less than 100 nM; in assay [4] it was less than 100 nM.
With `CCOC(=O)NC(=S)N1[C@@H]2CC[C@H]1CN(c1ncnc3[nH]ccc13)C2` [Example 29, [3-(7H-Pyrrolo[2,3-d]pyrimidin-4-yl)-3,8-diazabicyclo[3.2.1]octane-8-carbothioyl]carbamic acid ethyl ester], the EC50 in assay [1] was greater than 500 nM; in assay [2] it was greater than 500 nM; in assay [3] it was 100 to 500 nM; in assay [4], 100 to 500 nM.
`CCC(=O)N1[C@@H]2CC[C@H]1CN(c1ncnc3[nH]ccc13)C2` [Example 30, 1-[3-(7H-Pyrrolo[2,3-d]pyrimidin-4-yl)-3,8-diazabicyclo[3.2.1]oct-8-yl]propan-1-one]: the EC50 in assay [1] is greater than 500 nM; in assay [2] it was greater than 500 nM; in assay [3], 100 to 500 nM; in assay [4] it was 100 to 500 nM.
Take `N#Cc1ccc(C(=O)N2[C@@H]3CC[C@H]2CN(c2ncnc4[nH]ccc24)C3)cc1` [Example 31, 4-[3-(7H-Pyrrolo[2,3-d]pyrimidin-4-yl)-3,8-diazabicyclo[3.2.1]octane-8-carbonyl]benzonitrile]: the EC50 was greater than 500 nM in assay [1], 100 to 500 nM in assay [2], less than 100 nM in assay [3] and less than 100 nM in assay [4].
For `O=C(Cc1ccccc1)N1[C@@H]2CC[C@H]1CN(c1ncnc3[nH]ccc13)C2` [Example 32, 2-Phenyl-1-[3-(7H-pyrrolo[2,3-d]pyrimidin-4-yl)-3,8-diazabicyclo[3.2.1]oct-8-yl]ethanone], the EC50 in assay [1] is greater than 500 nM; in assay [2], greater than 500 nM; in assay [3] it was 100 to 500 nM; in assay [4], 100 to 500 nM.
Regarding `O=C(c1ccccc1)N1[C@@H]2CC[C@H]1CN(c1ncnc3[nH]ccc13)C2` [Example 33, Phenyl-[3-(7H-pyrrolo[2,3-d]pyrimidin-4-yl)-3,8-diazabicyclo[3.2.1]oct-8-yl]methanone], the EC50 in assay [1] is 100 to 500 nM; in assay [2], 100 to 500 nM; in assay [3] it was less than 100 nM; in assay [4], less than 100 nM.
Consider `CC(=O)NCC(=O)N1[C@@H]2CC[C@@H]1CN(c1ncnc3[nH]ccc13)C2` [Example 34, N-{2-Oxo-2-[3-(7H-pyrrolo[2,3-d]pyrimidin-4-yl)-3,8-diaza-bicyclo[3.2.1]oct-8-yl]-ethyl}acetamide], for which the half-maximal effective concentration (EC50) in assay [1], in assay [2], in assay [3] and in assay [4] was greater than 500 nM each time.
